In US10368545B2, “Substituted 2-thioimidazolylcarboxamides as pesticides” (BAYER CROPSCIENCE AKTIENGESELLSCHAFT, priority 2015, dated 2019):

Columns and labels:
[1] = tested on: green peach aphid (Myzus persicae); test: Contrasting example: Myzus persicae spray test (MYZUPE); type: in vivo; conditions: MYZUPE, 100 g ai/ha
Description: Myzus persicae—Spray Test (MYZUPE)
Solvents: 78.0 parts by weight of acetone • • 1.5 parts by weight of dimethylformamide
(§1) Emulsifier: alkylaryl polyglycol ether
(§2) To produce a suitable active compound preparation, 1 part by weight of active compound is dissolved using the stated parts by weight of solvent and made up with water containing an emulsifier concentration of 1000 ppm until the desired concentration is attained. To produce further test concentrations, the preparation is diluted with emulsifier-containing water.
Discs of Chinese cabbage leaves (Brassica pekinensis), infested by all stages of the green peach aphid (Myzus persicae) are sprayed with an active compound preparation of the desired concentration.
After the desired period of time, the efficacy in % is determined. 100% means that all aphids were killed; 0% means that no aphids were killed.

[2] = log P by HPLC on reversed-phase C18 columns (OECD Guideline 117); type: physicochemical; conditions: for logP[a]: method [a]; for logP[b]: method [b]
Description: The log P values were determined in accordance with OECD Guideline 117 (EC Directive 92/69/EEC) by HPLC (high-performance liquid chromatography) using reversed-phase (RP) columns (C18), by the following methods:
[a] The LC-MS determination in the acidic range was carried out at pH 2.7 with 0.1% aqueous formic acid and acetonitrile (contains 0.1% formic acid) as mobile phases; linear gradient from 10% acetonitrile to 95% acetonitrile.
[b] LC-MS determination in the neutral range was carried out at pH 7.8 with 0.001 molar aqueous ammonium hydrogencarbonate solution and acetonitrile as mobile phases; linear gradient from 10% acetonitrile to 95% acetonitrile.

[3] = tested on: green peach aphid (Myzus persicae); test: Myzus persicae spray test (Chinese cabbage leaf discs); type: in vivo; conditions: after 5 or 6 days, Chinese cabbage leaf discs
Description: Myzus persicae—Spray Test
Solvent: 78 parts by weight of acetone • • 1.5 parts by weight of dimethylformamide
as §1, §2
Discs of Chinese cabbage leaves (Brassica pekinensis) infested by all stages of the green peach aphid (Myzus persicae) are sprayed with an active compound preparation of the desired concentration.
After 5 or 6 days, the efficacy in % is determined. 100% means that all the aphids were killed; 0% means that no aphids were killed.

| Compound | % efficacy ([1]; 6 dat) [%] | logP[a] [2] | logP[b] [2] | efficacy (aphids killed) ([3]; application rate 500 g/ha) [%] | % efficacy ([1]; 5 dat) [%] | efficacy (aphids killed) ([3]; application rate 100 g/ha) [%] |
| --- | --- | --- | --- | --- | --- | --- |
| CN(C(=O)c1cnc(Sc2ccccc2S(=O)(=O)N(C)C)n1C)c1cccnc1 [I-A-69] | 70 | 1.56 | 1.63 | 100 | – | – |
| CN(C(=O)c1cnc(Sc2ccc(Cl)nc2)n1C)c1cccnc1 [I-A-70] | 70 | 1.45 | 1.52 | 100 | – | – |
| CN(C(=O)c1cnc(Sc2ccccc2F)n1C)c1cccnc1 [I-A-71] | 70 | 1.68 | 1.78 | 100 | – | – |
| CN(C(=O)c1cnc(S(=O)(=O)c2ccc(F)cc2)n1C)c1cccnc1 [I-A-82] | 90 | 1.53 | 1.62 | 90 | – | – |
| CN(C(=O)c1cnc([S+]([O-])c2ccc(F)cc2)n1C)c1cccnc1 (centres unmarked) [I-A-84] | 70 | 1.22 | 1.27 | 90 | – | – |
| CN(C(=O)c1cnc([S+]([O-])c2ccccn2)n1C)c1cccnc1 (centres unmarked) [I-A-86] | 90 | 0.59 | 0.80 | 90 | – | – |
| CN(C(=O)c1cnc([S+]([O-])c2ccccc2)n1C)c1cccnc1 (centres unmarked) [I-A-87] | 90 | 1.04 | 1.20 | 90 | – | – |
| CN(C(=O)c1cnc(Sc2ccc(F)cn2)n1C)c1cccnc1 [I-A-94] | 90 | 1.18 | 1.39 | 100 | – | – |
| CN(C(=O)c1cnc([S+]([O-])c2cccc(C(F)(F)F)c2)n1C)c1ccc[n+]([O-])c1 (centres unmarked) [I-A-95] | – | 1.41 | 1.39 | 100 | 90 | – |
| CN(C(=O)c1cnc([S+]([O-])c2cccc(C(F)(F)F)c2)n1C)c1cccnc1 (centres unmarked) [I-A-96] | – | 1.74 | 1.80 | 100 | 90 | – |
| CN(C(=O)c1cnc([S+]([O-])c2ncccn2)n1C)c1cccnc1 (centres unmarked) [I-A-97] | 70 | 0.45 | 0.48 | 90 | – | – |
| CN(C(=O)c1cnc(Sc2nccc(C(F)(F)F)n2)n1C)c1cccnc1 [I-A-100] | 90 | 1.58 | – | 90 | – | – |
| Cc1ccnc(Sc2ncc(C(=O)N(C)c3cccnc3)n2C)n1 [I-A-101] | 90 | 1.00 | – | 100 | – | – |
| COc1cc(OC)nc(Sc2ncc(C(=O)N(C)c3cccnc3)n2C)n1 [I-A-102] | 90 | 1.61 | 1.79 | 100 | – | – |
| Cc1cnc(Sc2ncc(C(=O)N(C)c3cccnc3)n2C)nc1 [I-A-104] | 90 | 0.97 | – | 100 | – | – |
| COc1ccnc(Sc2ncc(C(=O)N(C)c3cccnc3)n2C)n1 [I-A-106] | 90 | 1.20 | – | 100 | – | – |
| Cc1cccc(Sc2ncc(C(=O)N(C)c3cccnc3)n2C)n1 [I-A-108] | 70 | 1.28 | 1.43 | 100 | – | – |
| CN(C(=O)c1cnc(SCc2ncccn2)n1C)c1cccnc1 [I-A-112] | 90 | 0.56 | 0.85 | 100 | – | – |

| Compound | % efficacy ([1]; 6 dat) [%] | logP[a] [2] | logP[b] [2] | efficacy (aphids killed) ([3]; application rate 500 g/ha) [%] | % efficacy ([1]; 5 dat) [%] | efficacy (aphids killed) ([3]; application rate 100 g/ha) [%] |
| --- | --- | --- | --- | --- | --- | --- |
| CN(C(=O)c1cnc(SCc2cnccn2)n1C)c1cccnc1 [I-A-113] | 90 | 0.66 | 0.93 | 90 | – | – |
| CN(C(=O)c1cnc(SCc2ccncc2)n1C)c1cccnc1 [I-A-116] | 90 | 0.16 | 1.11 | 100 | – | – |
| CN(C(=O)c1cnc(SCc2ccccn2)n1C)c1cccnc1 [I-A-117] | 90 | 0.63 | 1.16 | 90 | – | – |
| CN(C(=O)c1cnc(SCc2ccc(Cl)nc2)n1C)c1cccnc1 [I-A-122] | 90 | 1.37 | 1.58 | 100 | – | – |
| CN(C(=O)c1cnc(SCc2c(Cl)cccc2C(F)(F)F)n1C)c1cccnc1 [I-A-126] | 70 | 2.47 | 2.54 | 100 | – | – |
| COc1cc(OC)nc(CSc2ncc(C(=O)N(C)c3cccnc3)n2C)n1 [I-A-128] | 90 | 1.41 | 1.68 | 90 | – | – |
| CN(C(=O)c1cnc([S+]([O-])Cc2ccccc2)n1C)c1cccnc1 (centres unmarked) [I-A-130] | – | 1.18 | – | 90 | 90 | – |
| CN(C(=O)c1cnc(Sc2nc3ccccc3n2C)n1C)c1cccnc1 [I-A-134] | – | 1.27 | 1.56 | 100 | 100 | – |
| Cc1nnc(Sc2ncc(C(=O)N(C)c3cccnc3)n2C)o1 [I-A-135] | – | 0.62 | 0.89 | 100 | 90 | – |
| CCn1c(Sc2ncc(C(=O)N(C)c3cccnc3)n2C)nnc1C(F)(F)F [I-A-137] | – | 1.41 | 1.46 | 90 | 90 | – |
| CN(C(=O)c1cnc(Sc2nnc(C(F)(F)F)n2C)n1C)c1cccnc1 [I-A-138] | – | 1.12 | 1.26 | 100 | 90 | – |
| CN(C(=O)c1cnc(Sc2nnc(C(F)F)n2C)n1C)c1cccnc1 [I-A-139] | – | 0.87 | 1.00 | 100 | 90 | – |
| CN(C(=O)c1cnc(Sc2nnc(-c3ccccc3)s2)n1C)c1cccnc1 [I-A-140] | – | 1.92 | 1.96 | 100 | 70 | – |
| CN(C(=O)c1cnc(Sc2ncc(-c3ccccc3)n2C)n1C)c1cccnc1 [I-A-141] | – | 1.39 | 1.84 | 100 | 70 | – |
| Cc1nc(Sc2ncc(C(=O)N(C)c3cccnc3)n2C)oc1C [I-A-142] | – | 1.31 | 1.47 | 90 | 90 | – |
| CN(C(=O)c1cnc(Sc2nccn2C)n1C)c1cccnc1 [I-A-144] | – | – | 0.86 | 100 | 90 | – |
| CCn1c(C(=O)N(C)c2cccnc2)cnc1Sc1ncccn1 [I-A-146] | – | 1.11 | 1.27 | – | 90 | 90 |
